Test results taken from BindingDB's records for doi:10.7270/Q2319T8T (The Scripps Research Institute Molecular Screening Center, 2007).
pIC50: −log10 of the molar value. Counter-ions that a name gives are not always drawn.

Molecular target: Steroidogenic factor 1 (Homo sapiens, UniProt Q13285)
Test: SF-1 inhibitor potency, dose response, cell-based, CHO-K1, Gal4-SF-1 LBD, luciferase luminescence (AID 600)
[1] = inactive by the depositor's call

Steroidogenic factor 1, sequence (Q13285 whole entry, the tested form may be a part): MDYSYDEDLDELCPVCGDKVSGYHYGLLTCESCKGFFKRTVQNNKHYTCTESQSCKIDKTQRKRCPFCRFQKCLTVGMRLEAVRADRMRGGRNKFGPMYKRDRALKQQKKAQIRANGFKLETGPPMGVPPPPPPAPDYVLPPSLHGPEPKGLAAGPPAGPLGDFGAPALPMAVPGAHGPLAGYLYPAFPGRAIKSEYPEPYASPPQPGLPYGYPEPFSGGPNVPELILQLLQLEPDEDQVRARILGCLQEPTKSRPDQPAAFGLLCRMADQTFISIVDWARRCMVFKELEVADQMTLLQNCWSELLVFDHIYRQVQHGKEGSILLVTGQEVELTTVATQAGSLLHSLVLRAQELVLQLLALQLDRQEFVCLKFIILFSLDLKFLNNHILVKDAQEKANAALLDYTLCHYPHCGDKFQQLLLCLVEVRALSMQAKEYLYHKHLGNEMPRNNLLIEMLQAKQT

| Structure (SMILES) | pIC50 | pIC50 [1] |
| --- | --- | --- |
| COc1cccc(NC(=O)CSc2nnc(-c3cc(C)n(-c4ccccc4)c3C)o2)c1 [2-[[5-(2,5-dimethyl-1-phenyl-3-pyrrolyl)-1,3,4-oxadiazol-2-yl]thio]-N-(3-methoxyphenyl)acetamide] | 5.47 | – |
| CCOC(=O)c1c(N)sc(C(=O)Nc2ccc3c(c2)OCO3)c1C [2-amino-5-(1,3-benzodioxol-5-ylcarbamoyl)-4-methyl-thiophene-3-carboxylic acid ethyl ester] | < 5.44 | – |
| CCN(CC)c1ccc2c(c1)OC(=N)C(C#N)C2c1cccnc1 (stereo not drawn) [2-amino-7-(diethylamino)-4-(3-pyridinyl)-4H-1-benzopyran-3-carbonitrile] | < 5.44 | – |
| CN(C)c1ccc2c(c1)OC(=N)C(C#N)C2c1cccc(F)c1 (stereo not drawn) [2-amino-7-(dimethylamino)-4-(3-fluorophenyl)-4H-1-benzopyran-3-carbonitrile] | 4.96 | – |
| COc1cc(C2c3ccc(N(C)C)cc3OC(=N)C2C#N)cc2c1OCO2 (stereo not drawn) [2-amino-7-(dimethylamino)-4-(7-methoxy-1,3-benzodioxol-5-yl)-4H-1-benzopyran-3-carbonitrile] | < 5.44 | – |
| CCc1nn2cc(-c3ccccc3)nc2s1 [2-ethyl-6-phenyl-imidazo[2,1-b][1,3,4]thiadiazole] | 5.36 | – |
| CCCc1ccc(-c2ccc(F)c(N)c2)nc1 [2-fluoranyl-5-(5-propylpyridin-2-yl)aniline] | 5.13 | – |
| c1ccc(-c2nc(NCc3ccco3)c3ccccc3n2)nc1 [2-furfuryl-[2-(2-pyridyl)quinazolin-4-yl]amine] | 5.17 | – |
| O=C(c1ccc2c3c(cccc13)C(=O)N(O)C2=O)N1CCCCC1 [2-hydroxy-6-(piperidine-1-carbonyl)benzo[de]isoquinoline-1,3-dione] | 5.72 | – |
| COc1cc(C2C3=C(N=C(C)C2C#N)c2ccccc2C3=O)cc(OC)c1OC (stereo not drawn) [2-methyl-5-oxidanylidene-4-(3,4,5-trimethoxyphenyl)-1,4-dihydroindeno[1,2-b]pyridine-3-carbonitrile] | < 5.91 | – |
| c1ccc(-c2cn3c4c(sc3n2)CCCC4)cc1 [2-phenyl-5,6,7,8-tetrahydroimidazo[2,1-b][1,3]benzothiazole] | 5.34 | – |
| N#CC(C#N)=c1ccc2c(c1)NC1(CCCCC1)N=2 [2-spiro[3H-benzimidazole-2,1'-cyclohexane]-5-ylidenepropanedinitrile] | – | 5.00 |
| c1csc(CNc2ncnc3sccc23)c1 [2-thenyl(thieno[2,3-d]pyrimidin-4-yl)amine] | 5.46 | – |
| COc1cc(C(=O)Oc2c(CN3CCOCC3)cc(Cl)c3cccnc23)cc(OC)c1OC [3,4,5-trimethoxybenzoic acid [5-chloro-7-(4-morpholinylmethyl)-8-quinolinyl] ester] | – | 4.91 |
| Cc1nn(-c2ccccc2)c(C)c1C(=O)OCC(=O)c1c(N)n(CC(C)C)c(=O)n(C)c1=O [3,5-dimethyl-1-phenyl-4-pyrazolecarboxylic acid [2-[4-amino-1-methyl-3-(2-methylpropyl)-2,6-dioxo-5-pyrimidinyl]-2-oxoethyl] ester] | – | 4.52 |
| c1ccc(-c2ccc(-c3ccccn3)nn2)nc1 [3,6-bis(2-pyridinyl)pyridazine] | < 4.96 | – |
| Cc1ccc(-c2nc3nc4ccccc4nc3n2Cc2ccco2)cc1 [3-(2-furanylmethyl)-2-(4-methylphenyl)imidazo[4,5-b]quinoxaline] | 5.16 | – |
| CCOc1ccc(-c2noc(CCC(=O)O)n2)cc1 [3-(3-p-phenetyl-1,2,4-oxadiazol-5-yl)propionic acid] | 5.41 | – |
| Cc1ccc(-c2cc3c(nn2)-c2ccccc2C3=O)cc1 [3-(4-methylphenyl)-5H-indeno[1,2-c]pyridazin-5-one] | – | 4.89 |

| Structure (SMILES) | pIC50 | pIC50 [1] |
| --- | --- | --- |
| CN(C)CC(C(=O)c1ccccc1)c1ccccc1 (stereo not drawn) [3-(dimethylamino)-1,2-diphenyl-1-propanone;hydrochloride] | < 5.44 | – |
| COc1cc(OC)cc(-c2cc3nc(C)c(CCC(=O)O)c(C)n3n2)c1 [3-[2-(3,5-dimethoxyphenyl)-5,7-dimethyl-6-pyrazolo[1,5-a]pyrimidinyl]propanoic acid] | 6.20 | – |
| COc1ccc(NC(=O)N2CCCC(c3nc(-c4ccc(C(C)C)cc4)no3)C2)cc1 (stereo not drawn) [3-[3-(4-Isopropyl-phenyl)-[1,2,4]oxadiazol-5-yl]-piperidine-1-carboxylic acid (4-methoxy-phenyl)-amide] | – | 4.85 |
| Cc1ccccc1NC(=O)N1CCCC(c2nc(-c3ccc(C(C)C)cc3)no2)C1 (stereo not drawn) [3-[3-(4-Isopropyl-phenyl)-[1,2,4]oxadiazol-5-yl]-piperidine-1-carboxylic acid o-tolylamide] | 5.15 | – |
| CN(C)C(=O)CCc1nc(-c2ccc(C(C)(C)C)cc2)no1 [3-[3-(4-tert-butylphenyl)-1,2,4-oxadiazol-5-yl]-N,N-dimethyl-propanamide] | 6.00 | – |
| CCNC(=O)CCc1nc(-c2ccc(C(C)(C)C)cc2)no1 [3-[3-(4-tert-butylphenyl)-1,2,4-oxadiazol-5-yl]-N-ethyl-propanamide] | 7.40 | – |
| CNC(=O)CCc1nc(-c2ccc(C(C)(C)C)cc2)no1 [3-[3-(4-tert-butylphenyl)-1,2,4-oxadiazol-5-yl]-N-methyl-propanamide] | 7.24 | – |
| CC(C)(C)c1ccc(-c2noc(CCC(N)=O)n2)cc1 [3-[3-(4-tert-butylphenyl)-1,2,4-oxadiazol-5-yl]propanamide] | 7.16 | – |
| O=C(O)c1cccc(COc2ccccc2Cl)c1 [3-[(2-chloranylphenoxy)methyl]benzoic acid] | 6.16 | – |
| O=C(O)c1cccc(COc2ccc(CO)cc2Cl)c1 [3-[(2-chloro-4-methylol-phenoxy)methyl]benzoic acid] | 6.26 | – |
| COc1ccc(/N=c2\scc(-c3ccc(S(=O)(=O)N4CCOCC4)cc3)n2CCCO)cc1 [3-[(2Z)-2-[(4-methoxyphenyl)imino]-4-[4-(morpholin-4-ylsulfonyl)phenyl]-1,3-thiazol-3(2H)-yl]propan-1-ol] | 4.66 | – |
| Cc1cc(C(=O)Nc2cccc(C(=O)O)c2)oc1C [3-[(4,5-dimethyl-2-furoyl)amino]benzoic acid] | 5.50 | – |
| CCOc1ccc(OCc2cccc(C(=O)O)c2)cc1 [3-[(4-ethoxyphenoxy)methyl]benzoic acid] | 6.29 | – |
| COc1ccc(OCc2cccc(C(=O)O)c2)cc1 [3-[(4-methoxyphenoxy)methyl]benzoic acid] | 6.38 | – |
| O=C(c1ccc(Cl)cc1)N1CCCCC(Sc2nnc(-c3ccc4c(c3)OCO4)o2)C1=O (stereo not drawn) [3-[[5-(1,3-benzodioxol-5-yl)-1,3,4-oxadiazol-2-yl]sulfanyl]-1-(4-chlorobenzoyl)azepan-2-one] | 5.97 | – |
| Cc1ccsc1C(=O)OCC(=O)c1cc(C)n(CC2CCCO2)c1C (stereo not drawn) [3-methyl-2-thiophenecarboxylic acid [2-[2,5-dimethyl-1-(2-oxolanylmethyl)-3-pyrrolyl]-2-oxoethyl] ester] | < 7.34 | – |
| Clc1ccc(-n2ncc3c(N4CCCCCC4)ncnc32)cc1 [4-(1-azepanyl)-1-(4-chlorophenyl)pyrazolo[3,4-d]pyrimidine] | 5.50 | – |
| Cc1ccnc(NC(=O)CCCOc2cc(=O)n(C)c3ccccc23)c1 [4-(1-methyl-2-oxidanylidene-quinolin-4-yl)oxy-N-(4-methylpyridin-2-yl)butanamide] | 5.21 | – |
| O=C(Nc1nc(-c2ccccn2)cs1)c1ccc(S(=O)(=O)N2CCCCC2)cc1 [4-(1-piperidinylsulfonyl)-N-[4-(2-pyridinyl)-2-thiazolyl]benzamide] | 5.00 | – |
